{
  "source": "patent EP0280593B1",
  "about": "“Composition on the basis of an amino-acid and vitamins for use in cancer therapy” (Rougereau, André, priority 1987, dated 1988)",
  "origin": "cited, not measured here",
  "key": {"souris": {"tested_on": "souris", "conditions": "par voie orale chez la souris"}, "rat": {"tested_on": "rat", "conditions": "par voie orale chez le rat"}},
  "data": [
    {"molecule": "NCCC(=O)O", "note": "[β-alanine]", "values": [
      {"measurement": "dose léthale DL₅₀", "setting": "souris", "result": "> 10000", "unit": "mg/kg"},
      {"measurement": "dose léthale DL₅₀", "setting": "rat", "result": "> 10000", "unit": "mg/kg"}
    ]}
  ]
}
